{"source": "ChEMBL document CHEMBL1201862", "about": "“PubChem BioAssay data set” (2004)", "key": {"X-box-binding protein 1": {"target": "T1, X-box-binding protein 1 (Homo sapiens, UniProt P17861)", "T1 sequence (P17861 whole entry)": "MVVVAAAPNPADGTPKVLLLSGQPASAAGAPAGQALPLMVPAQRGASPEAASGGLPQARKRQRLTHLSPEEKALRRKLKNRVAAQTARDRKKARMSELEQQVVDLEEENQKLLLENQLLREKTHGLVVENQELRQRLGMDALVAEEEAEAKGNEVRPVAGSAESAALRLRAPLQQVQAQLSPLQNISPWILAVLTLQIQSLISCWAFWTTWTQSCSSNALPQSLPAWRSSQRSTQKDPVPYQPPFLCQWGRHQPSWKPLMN", "type": "functional, Cricetulus griseus"}, "Aminopeptidase N": {"target": "T2, Aminopeptidase N (Plasmodium falciparum FcB1/Columbia, UniProt O96935)", "T2 sequence (O96935 whole entry)": "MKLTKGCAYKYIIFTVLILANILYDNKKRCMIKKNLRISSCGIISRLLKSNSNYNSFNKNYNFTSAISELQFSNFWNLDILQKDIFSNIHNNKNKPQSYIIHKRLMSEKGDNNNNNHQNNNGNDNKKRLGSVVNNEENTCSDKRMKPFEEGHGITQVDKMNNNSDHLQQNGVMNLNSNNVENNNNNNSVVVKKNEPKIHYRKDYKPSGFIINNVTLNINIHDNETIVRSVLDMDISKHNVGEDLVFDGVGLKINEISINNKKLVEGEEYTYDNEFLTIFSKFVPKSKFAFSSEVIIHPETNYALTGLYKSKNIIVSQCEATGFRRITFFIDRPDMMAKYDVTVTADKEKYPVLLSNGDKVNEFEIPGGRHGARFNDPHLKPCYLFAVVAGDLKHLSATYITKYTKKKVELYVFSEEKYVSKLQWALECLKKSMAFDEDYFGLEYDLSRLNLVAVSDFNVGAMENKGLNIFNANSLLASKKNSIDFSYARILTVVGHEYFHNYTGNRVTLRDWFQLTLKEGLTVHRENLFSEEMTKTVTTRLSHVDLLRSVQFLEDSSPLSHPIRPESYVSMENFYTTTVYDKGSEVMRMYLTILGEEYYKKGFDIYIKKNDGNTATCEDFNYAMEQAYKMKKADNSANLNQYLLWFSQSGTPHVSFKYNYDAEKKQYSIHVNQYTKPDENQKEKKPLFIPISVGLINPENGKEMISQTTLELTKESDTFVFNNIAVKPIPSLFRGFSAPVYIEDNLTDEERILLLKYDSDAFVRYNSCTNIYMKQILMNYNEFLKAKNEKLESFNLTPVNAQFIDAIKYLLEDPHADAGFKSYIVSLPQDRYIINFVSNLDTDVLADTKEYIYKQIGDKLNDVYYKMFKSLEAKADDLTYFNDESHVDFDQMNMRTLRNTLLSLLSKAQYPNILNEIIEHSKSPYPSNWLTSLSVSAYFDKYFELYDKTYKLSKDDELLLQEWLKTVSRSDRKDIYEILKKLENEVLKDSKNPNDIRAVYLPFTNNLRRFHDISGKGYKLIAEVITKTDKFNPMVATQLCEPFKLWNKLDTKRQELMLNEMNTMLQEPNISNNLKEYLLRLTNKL", "assay": "P. falciparum M1AAP inhibitors, biochemical, fluorogenic H-Leu-NHMec substrate, 1536-well (AID 1445)", "set-up": "species or system Plasmodium falciparum 3D7, 3D7"}, "Procathepsin L": {"target": "Procathepsin L (Homo sapiens, UniProt P07711)", "assay": "cathepsin L inhibitors, dose response, counter-screen for M1/M17 aminopeptidase inhibitor project, biochemical, QFRET, 1536-well (AID 2214)"}, "Genome polyprotein": {"target": "Genome polyprotein (dengue virus type 2, UniProt P29990)", "assay": "Dengue-2 NS5 methyltransferase inhibitors, primary screen, biochemical, confirmation dose response (AID 588689)", "type": "functional"}, "Aspartyl aminopeptidase": {"target": "T3, Aspartyl aminopeptidase (Plasmodium falciparum 3D7, UniProt Q8I2J3)", "T3 sequence (Q8I2J3 whole entry)": "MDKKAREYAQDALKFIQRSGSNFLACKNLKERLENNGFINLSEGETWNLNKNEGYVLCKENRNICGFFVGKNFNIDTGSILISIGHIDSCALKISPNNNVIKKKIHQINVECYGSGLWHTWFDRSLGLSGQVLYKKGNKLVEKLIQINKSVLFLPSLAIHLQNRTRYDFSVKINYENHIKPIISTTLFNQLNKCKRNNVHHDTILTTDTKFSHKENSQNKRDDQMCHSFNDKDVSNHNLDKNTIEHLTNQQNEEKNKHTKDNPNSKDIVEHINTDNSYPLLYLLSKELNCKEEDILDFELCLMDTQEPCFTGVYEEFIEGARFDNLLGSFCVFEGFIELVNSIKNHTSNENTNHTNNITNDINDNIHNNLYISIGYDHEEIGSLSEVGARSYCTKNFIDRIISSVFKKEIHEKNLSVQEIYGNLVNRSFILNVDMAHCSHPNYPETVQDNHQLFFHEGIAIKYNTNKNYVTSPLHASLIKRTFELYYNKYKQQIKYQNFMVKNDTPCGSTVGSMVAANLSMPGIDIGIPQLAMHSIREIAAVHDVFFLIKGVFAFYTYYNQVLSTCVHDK", "assay": "Counterscreen for inhibitors of M1 and M17 aminopeptidases: QFRET-based biochemical high throughput dose response assay for inhibitors of the Plasmodium falciparum M18 Aspartyl Aminopeptidase (PFM18AAP). [Related PubChem assays: 1619 (Screening assay (M17LAP inhibitors).), 1445 (Screening assay (M1AAP inhibitors).)]"}, "[1]": {"target": "Peroxisome proliferator-activated receptor gamma/Nuclear receptor coactivator 1 (Homo sapiens, UniProt P37231)", "sequence (P37231 whole entry)": "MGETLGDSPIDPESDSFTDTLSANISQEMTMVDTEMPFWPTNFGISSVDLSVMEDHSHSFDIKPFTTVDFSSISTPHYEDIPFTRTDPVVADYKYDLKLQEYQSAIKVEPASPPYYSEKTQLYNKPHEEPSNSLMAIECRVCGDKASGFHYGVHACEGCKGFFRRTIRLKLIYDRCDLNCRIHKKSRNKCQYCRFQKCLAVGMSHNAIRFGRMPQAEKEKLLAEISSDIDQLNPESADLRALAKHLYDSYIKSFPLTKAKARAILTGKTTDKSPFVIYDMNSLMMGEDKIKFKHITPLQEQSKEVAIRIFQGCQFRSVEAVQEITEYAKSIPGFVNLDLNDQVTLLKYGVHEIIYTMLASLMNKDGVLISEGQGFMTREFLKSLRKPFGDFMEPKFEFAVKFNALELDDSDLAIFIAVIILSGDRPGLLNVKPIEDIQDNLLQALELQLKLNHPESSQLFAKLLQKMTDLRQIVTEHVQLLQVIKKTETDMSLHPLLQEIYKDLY", "sequence (Q15788 whole entry, further chain)": "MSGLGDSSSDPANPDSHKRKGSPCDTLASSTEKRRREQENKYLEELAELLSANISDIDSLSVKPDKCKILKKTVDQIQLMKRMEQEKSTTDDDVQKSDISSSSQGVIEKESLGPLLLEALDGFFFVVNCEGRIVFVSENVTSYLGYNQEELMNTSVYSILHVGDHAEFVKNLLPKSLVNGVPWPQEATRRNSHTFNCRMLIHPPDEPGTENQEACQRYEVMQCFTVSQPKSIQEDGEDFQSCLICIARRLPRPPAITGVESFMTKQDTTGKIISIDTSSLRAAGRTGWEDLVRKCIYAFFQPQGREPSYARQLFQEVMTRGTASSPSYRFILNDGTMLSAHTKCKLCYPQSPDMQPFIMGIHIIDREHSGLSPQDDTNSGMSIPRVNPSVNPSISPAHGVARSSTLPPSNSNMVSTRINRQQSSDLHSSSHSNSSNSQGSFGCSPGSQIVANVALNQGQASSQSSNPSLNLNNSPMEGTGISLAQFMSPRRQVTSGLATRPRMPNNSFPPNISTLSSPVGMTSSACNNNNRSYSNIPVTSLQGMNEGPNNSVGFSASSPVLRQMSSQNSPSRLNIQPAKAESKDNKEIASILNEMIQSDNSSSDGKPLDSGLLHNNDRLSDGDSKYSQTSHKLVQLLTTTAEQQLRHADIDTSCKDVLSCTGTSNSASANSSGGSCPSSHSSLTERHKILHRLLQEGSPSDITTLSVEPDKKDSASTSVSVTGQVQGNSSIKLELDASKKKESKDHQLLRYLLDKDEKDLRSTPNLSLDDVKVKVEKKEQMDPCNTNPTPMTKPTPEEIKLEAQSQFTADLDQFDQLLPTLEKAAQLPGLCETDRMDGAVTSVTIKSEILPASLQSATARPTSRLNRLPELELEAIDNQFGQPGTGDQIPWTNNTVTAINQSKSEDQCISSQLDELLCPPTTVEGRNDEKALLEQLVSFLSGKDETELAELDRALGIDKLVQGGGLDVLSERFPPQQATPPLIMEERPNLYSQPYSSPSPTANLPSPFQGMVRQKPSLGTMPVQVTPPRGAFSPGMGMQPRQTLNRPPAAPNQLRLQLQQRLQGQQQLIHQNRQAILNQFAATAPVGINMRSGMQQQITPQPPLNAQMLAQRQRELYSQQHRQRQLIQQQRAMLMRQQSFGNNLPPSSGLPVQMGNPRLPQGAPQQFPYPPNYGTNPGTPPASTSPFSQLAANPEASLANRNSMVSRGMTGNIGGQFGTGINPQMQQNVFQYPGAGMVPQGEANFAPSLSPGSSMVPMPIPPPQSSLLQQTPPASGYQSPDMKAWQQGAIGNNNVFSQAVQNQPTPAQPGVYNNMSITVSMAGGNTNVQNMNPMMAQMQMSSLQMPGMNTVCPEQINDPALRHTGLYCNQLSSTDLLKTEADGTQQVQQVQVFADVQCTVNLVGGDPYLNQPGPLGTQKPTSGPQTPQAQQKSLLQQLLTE", "type": "functional"}, "[2]": {"target": "Peroxisome proliferator-activated receptor gamma/Nuclear receptor coactivator 2 (Homo sapiens, UniProt P37231)", "type": "functional"}, "[3]": {"target": "Peroxisome proliferator-activated receptor gamma/Nuclear receptor coactivator 3 (Homo sapiens, UniProt P37231)", "sequence (P37231 whole entry)": "as the sequence (P37231 whole entry) above", "sequence (Q9Y6Q9 whole entry, further chain)": "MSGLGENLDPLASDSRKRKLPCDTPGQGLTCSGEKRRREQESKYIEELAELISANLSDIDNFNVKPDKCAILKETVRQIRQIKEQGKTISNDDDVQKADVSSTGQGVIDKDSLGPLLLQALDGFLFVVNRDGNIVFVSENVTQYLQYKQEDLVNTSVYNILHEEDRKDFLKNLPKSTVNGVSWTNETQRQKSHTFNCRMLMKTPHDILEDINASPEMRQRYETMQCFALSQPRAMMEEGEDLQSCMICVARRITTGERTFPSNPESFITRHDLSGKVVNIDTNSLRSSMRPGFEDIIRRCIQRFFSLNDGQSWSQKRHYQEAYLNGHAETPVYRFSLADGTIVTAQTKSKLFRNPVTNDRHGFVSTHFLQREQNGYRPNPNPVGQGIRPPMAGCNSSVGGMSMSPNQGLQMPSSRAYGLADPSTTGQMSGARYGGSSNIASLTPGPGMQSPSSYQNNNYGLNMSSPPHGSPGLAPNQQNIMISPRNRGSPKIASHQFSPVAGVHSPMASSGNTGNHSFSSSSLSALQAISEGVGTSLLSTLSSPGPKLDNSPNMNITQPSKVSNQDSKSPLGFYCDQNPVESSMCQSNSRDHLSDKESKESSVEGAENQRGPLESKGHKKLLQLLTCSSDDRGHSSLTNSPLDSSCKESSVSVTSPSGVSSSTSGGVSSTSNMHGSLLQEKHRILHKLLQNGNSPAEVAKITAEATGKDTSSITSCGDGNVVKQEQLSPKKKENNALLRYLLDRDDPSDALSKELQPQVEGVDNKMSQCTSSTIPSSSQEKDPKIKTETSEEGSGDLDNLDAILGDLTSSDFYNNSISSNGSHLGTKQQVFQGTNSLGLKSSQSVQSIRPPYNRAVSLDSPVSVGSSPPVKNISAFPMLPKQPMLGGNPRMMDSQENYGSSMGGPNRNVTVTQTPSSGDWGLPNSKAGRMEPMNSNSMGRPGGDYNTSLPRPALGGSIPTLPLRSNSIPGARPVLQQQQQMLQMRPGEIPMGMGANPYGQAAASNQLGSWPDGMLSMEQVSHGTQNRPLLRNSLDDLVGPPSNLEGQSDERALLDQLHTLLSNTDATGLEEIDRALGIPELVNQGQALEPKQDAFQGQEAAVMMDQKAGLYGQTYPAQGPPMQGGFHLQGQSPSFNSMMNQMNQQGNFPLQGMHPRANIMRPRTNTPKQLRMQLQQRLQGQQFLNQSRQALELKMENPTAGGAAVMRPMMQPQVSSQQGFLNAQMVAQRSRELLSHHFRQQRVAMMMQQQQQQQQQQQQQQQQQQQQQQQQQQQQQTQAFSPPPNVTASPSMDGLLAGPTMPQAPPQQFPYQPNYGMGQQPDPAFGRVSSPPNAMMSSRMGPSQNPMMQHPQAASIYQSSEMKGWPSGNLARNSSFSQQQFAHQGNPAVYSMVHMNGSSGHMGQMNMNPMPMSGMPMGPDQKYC", "type": "functional"}, "[4]": {"assay": "cytotoxicity in HPDE-C7 cells, cell-based, fluorescence, HTS (AID 430)", "type": "functional", "conditions": "Homo sapiens"}, "[5]": {"assay": "cytotoxicity in KRAS-transformed pancreatic duct cells, primary screen, cell-based, fluorescence, HTS (AID 431);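 note: cell line used: HPDE-C7K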", "type": "functional", "conditions": "Homo sapiens"}, "[6]": {"target": "Luciferin 4-monooxygenase (Photinus pyralis, UniProt P08659)", "sequence (P08659 whole entry)": "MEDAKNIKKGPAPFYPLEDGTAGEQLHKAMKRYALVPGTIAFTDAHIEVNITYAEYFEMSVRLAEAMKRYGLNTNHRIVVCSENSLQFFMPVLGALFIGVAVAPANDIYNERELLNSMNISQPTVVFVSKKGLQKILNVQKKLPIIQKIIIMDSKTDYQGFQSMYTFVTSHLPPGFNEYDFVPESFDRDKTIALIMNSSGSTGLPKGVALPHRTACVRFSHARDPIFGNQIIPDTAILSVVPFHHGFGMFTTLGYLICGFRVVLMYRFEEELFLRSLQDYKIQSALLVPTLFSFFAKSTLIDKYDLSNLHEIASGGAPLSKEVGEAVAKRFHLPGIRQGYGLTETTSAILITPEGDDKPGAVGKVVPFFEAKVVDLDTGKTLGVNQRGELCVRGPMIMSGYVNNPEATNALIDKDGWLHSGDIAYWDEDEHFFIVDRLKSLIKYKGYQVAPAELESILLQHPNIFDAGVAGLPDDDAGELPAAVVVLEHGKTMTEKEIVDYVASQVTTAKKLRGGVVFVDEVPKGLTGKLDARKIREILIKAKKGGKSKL", "assay": "Counter Screen for Luciferase-based Assay Positives. [Related pubchem assays: 620, 618, 411 ]"}, "HT-1080": {"test_system": "HT-1080", "assay": "cytotoxicity in HT1080 fibrosarcoma cells, cell-based, fluorescence readout (AID 620)", "type": "functional", "conditions": "Homo sapiens"}, "[7]": {"target": "T4, Microphthalmia-associated transcription factor (Homo sapiens, UniProt O75030)", "T4 sequence (O75030 whole entry)": "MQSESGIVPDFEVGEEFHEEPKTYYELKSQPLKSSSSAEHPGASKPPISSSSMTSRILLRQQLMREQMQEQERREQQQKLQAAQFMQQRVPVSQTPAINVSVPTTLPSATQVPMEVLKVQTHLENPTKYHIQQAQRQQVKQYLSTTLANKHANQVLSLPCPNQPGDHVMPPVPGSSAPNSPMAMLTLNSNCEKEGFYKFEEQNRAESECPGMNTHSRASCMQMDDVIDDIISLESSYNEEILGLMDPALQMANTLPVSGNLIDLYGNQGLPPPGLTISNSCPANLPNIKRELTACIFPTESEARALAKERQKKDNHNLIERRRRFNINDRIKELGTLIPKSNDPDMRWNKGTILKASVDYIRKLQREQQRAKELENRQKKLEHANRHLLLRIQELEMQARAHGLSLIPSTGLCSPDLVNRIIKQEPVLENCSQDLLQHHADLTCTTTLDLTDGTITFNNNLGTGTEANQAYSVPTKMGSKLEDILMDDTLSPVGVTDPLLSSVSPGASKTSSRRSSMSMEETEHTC", "assay": "TRPM1 promoter luciferase signal decrease, dose response, MITF inhibitor project, cell-based, SK-MEL-5, cherry-picked, set 3 (AID 493073)", "type": "functional"}, "[8]": {"target": "Neurotensin receptor type 1 (Homo sapiens, UniProt P30989)", "sequence (P30989 whole entry)": "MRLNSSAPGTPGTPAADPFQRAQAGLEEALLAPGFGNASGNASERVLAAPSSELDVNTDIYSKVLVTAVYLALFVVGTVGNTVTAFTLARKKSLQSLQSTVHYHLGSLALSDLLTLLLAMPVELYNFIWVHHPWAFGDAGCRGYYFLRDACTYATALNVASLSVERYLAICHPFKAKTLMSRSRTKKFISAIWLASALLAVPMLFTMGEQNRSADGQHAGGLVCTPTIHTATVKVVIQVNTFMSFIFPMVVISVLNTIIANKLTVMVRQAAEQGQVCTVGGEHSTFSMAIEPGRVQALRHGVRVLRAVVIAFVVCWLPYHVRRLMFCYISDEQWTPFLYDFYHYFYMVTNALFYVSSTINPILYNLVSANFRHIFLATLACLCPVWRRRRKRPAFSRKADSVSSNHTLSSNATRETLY", "type": "functional"}}, "note": "Active and inactive are the calls of the source.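 Throughout, for Absolute IC50 (XBP1): confirmatory dose-response counter-screen serving a CHOP assay.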", "data": [{"molecule": "CCOc1cc(NC(=O)c2cccs2)c(OCC)cc1N=C(S)NCC(C)C", "values": [{"measurement": "Absolute IC50 (XBP1)", "setting": "X-box-binding protein 1", "value": 10, "unit": "µM"}]}, {"molecule": "O=C1/C(=C/c2cccs2)SC(=S)N1NS(=O)(=O)c1ccccc1", "values": [{"measurement": "IC50", "setting": "Aminopeptidase N", "value": "16.6 µM (active)"}, {"measurement": "IC50", "setting": "Procathepsin L", "value": "> 59.6 µM (not active)"}, {"measurement": "IC50", "setting": "Genome polyprotein", "value": "57.4 µM (active)"}, {"measurement": "IC50", "setting": "Aspartyl aminopeptidase", "value": "> 73.5 µM (not active)"}]}, {"molecule": "Cn1cnnc1SCc1ccc(C(=O)N=Nc2c(O)n(C)c3ccccc23)cc1", "values": [{"measurement": "EC50", "setting": "[1]", "value": "> 79.4 µM (not active)"}, {"measurement": "EC50", "setting": "[2]", "value": "> 79.4 µM (not active)"}, {"measurement": "EC50", "setting": "[3]", "value": "> 79.4 µM (not active)"}]}, {"molecule": "CCSC1=C(C#N)C(=O)n2c1cc1c2CCCC1", "values": [{"measurement": "EC50", "setting": "[4]", "value": "13.6 µM (active)"}, {"measurement": "EC50", "setting": "[5]", "value": "15.4 µM (active)"}]}, {"molecule": "Cc1[nH]c2ccccc2c1C(=O)C(=O)NCCOc1ccccc1", "values": [{"measurement": "EC50", "setting": "[1]", "value": "> 79.4 µM (not active)"}, {"measurement": "EC50", "setting": "[2]", "value": "> 79.4 µM (not active)"}, {"measurement": "EC50", "setting": "[3]", "value": "> 79.4 µM (not active)"}]}, {"molecule": "Cc1ccccc1C(=O)N/N=C/c1ccc([N+](=O)[O-])s1", "values": [{"measurement": "EC50", "setting": "[6]", "value": "11 µM (active)"}, {"measurement": "EC50", "setting": "HT-1080", "value": "> 50 µM (not active)"}, {"measurement": "AC50", "setting": "[7]", "value": "1.88 µM (active)"}]}, {"molecule": "C=CCn1/c(=N/C(=O)c2cccc(N3C(=O)CCC3=O)c2)sc2cccc(OC)c21", "values": [{"measurement": "EC50", "setting": "[8]", "value": "> 40 µM (inactive)"}]}]}
